Results from patent US9693563B2, “Boron-silane polyether complex” (3M INNOVATIVE PROPERTIES COMPANY, priority 2013, dated 2017).

Assay: Electrical conductivity of borax, silane polyether and borax-SPE complex solutions
Format: physicochemical
Conditions: for Conductivity: 25° C., 20 ml solution
Description: Electrical conductivity is an effective quantitative tool to study complex formation in water for the system of a weak acid and a weak base. In the current study, the silane polyether acts as the weak acid (pH around 6) and borax acts as the weak base (pH around 9). The following analyses were carried out at 25° C. using a 20 ml solution of borax or SPE-1. Conductivity was measure at 45 minutes (immediately after complexation). The results are reported in Table 4a in units of microSiemens per centimeter (μS/cm).
The electrical conductivity of 0.025 M solutions of borax-SPE complex were prepared at various molar ratios of borax to silane polyether (B:S). The following analyses were carried out at 25° C. using a 20 ml solution. Conductivity was measure at 45 minutes and again after 24 hours to assess the stability of the complex.

Q: With `O=BOB(O)OB(O)OB=O` [Borax, borax (Na2B4O7.10H2O)] as the molecule, how does the Conductivity (0.0005M) read?
A: 133 μS/cm

Q: And the Conductivity (0.001M)?
A: 260 μS/cm

Q: What about the Conductivity (0.005M) of the same molecule?
A: 853 μS/cm

Q: And the Conductivity (0.01M)?
A: 1225 μS/cm

Q: And the Conductivity (0.05M)?
A: 4530 μS/cm

Q: What about the Conductivity (0.1M) of the same molecule?
A: 9000 μS/cm

Q: What about the pH (weak acid / weak base in water) of the same molecule?
A: around 9
